Data taken from US11230538B2, “Herbicides” (SYNGENTA PARTICIPATIONS AG, priority 2016, dated 2022).

Columns and labels:
Type in all cases: in vivo
[1] = system: Alopecurus myosuroides (ALOMY); experiment: B1 Pre-emergence herbicidal activity; set-up: key: 5=total damage to plant; 0=no damage to plant; conditions: pre-emergence application, evaluated after 13 days
Protocol: (§1) Seeds of a variety of test species were sown in standard soil in pots: Triticum aestivium (TRZAW), Avena fatua (AVEFA), Alopecurus myosuroides (ALOMY), Echinochloa crus-galli (ECHCG), Lolium perenne (LOLPE), Zea Mays (ZEAMX), Abutilon theophrasti (ABUTH), Amaranthus retroflexus (AMARE) and Setaria fabenr (SETFA). After cultivation for one day (pre-emergence) under controlled conditions in a glasshouse (at 24/16° C., day/night; 14 hours light; 65% humidity), the plants were sprayed with an aqueous spray solution derived from the formulation of the technical active ingredient in acetone I water (50:50) solution containing 0.5% Tween 20 (polyoxyethelyene sorbitan monolaurate, CAS RN 9005-64-5). The test plants were then grown in a glasshouse under controlled conditions (at 24/16° C., day/night; 14 hours light; 65% humidity) and watered twice daily. After 13 days, the test was evaluated (5=total damage to plant; 0=no damage to plant).

[2] = system: Avena fatua (AVEFA); experiment: B1 Pre-emergence herbicidal activity; set-up: key: 5=total damage to plant; 0=no damage to plant; conditions: pre-emergence application, evaluated after 13 days
Protocol: as §1

[3] = system: Triticum aestivium (TRZAW); experiment: B1 Pre-emergence herbicidal activity; set-up: key: 5=total damage to plant; 0=no damage to plant; conditions: pre-emergence application, evaluated after 13 days
Protocol: as §1

[4] = system: Echinochloa crus-galli (ECHCG); experiment: B1 Pre-emergence herbicidal activity; set-up: key to Pre-emergence herbicidal activity, ECHCG (damage score 0-5): 5=total damage to plant; 0=no damage to plant; conditions: pre-emergence application, evaluated after 13 days
Protocol: as §1

[5] = system: Lolium perenne (LOLPE); experiment: B1 Pre-emergence herbicidal activity; set-up: key to Pre-emergence herbicidal activity, LOLPE (damage score 0-5): 5=total damage to plant; 0=no damage to plant; conditions: pre-emergence application, evaluated after 13 days
Protocol: as §1

[6] = system: Echinochloa crus-galli (ECHCG); experiment: B2 Post-emergence herbicidal activity; conditions: post-emergence application, evaluated after 13 days
Protocol: (§2) Seeds of a variety of test species were sown in standard soil in pots: Triticum aestivium (TRZAW), Avena fatua (AVEFA), Alopecurus myosuroides (ALOMY), Echinochloa crus-galli (ECHCG), Lolium perenne (LOLPE), Zea Mays (ZEAMX), Abutilon theophrasti (ABUTH), Amaranthus retroflexus (AMARE) and Setaria fabenri (SETFA). After 8 days cultivation (post-emergence) under controlled conditions in a glasshouse (at 24/16° C., day/night; 14 hours light; 65% humidity), the plants were sprayed with an aqueous spray solution derived from the formulation of the technical active ingredient in acetone I water (50:50) solution containing 0.5% Tween 20 (polyoxyethelyene sorbitan monolaurate, CAS RN 9005-64-5). The test plants were then grown in a glasshouse under controlled conditions (at 24/16° C., day/night; 14 hours light; 65% humidity) and watered twice daily. After 13 days, the test was evaluated (5=total damage to plant; 0=no damage to plant).

[7] = system: Alopecurus myosuroides (ALOMY); experiment: B2 Post-emergence herbicidal activity; set-up: key: 5=total damage to plant; 0=no damage to plant; conditions: post-emergence application, evaluated after 13 days
Protocol: as §2

[8] = system: Setaria fabenri (SETFA); experiment: B2 Post-emergence herbicidal activity; set-up: key: 5=total damage to plant; 0=no damage to plant; conditions: post-emergence application, evaluated after 13 days
Protocol: as §2

[9] = system: Triticum aestivium (TRZAW); experiment: B2 Post-emergence herbicidal activity; set-up: key: 5=total damage to plant; 0=no damage to plant; conditions: post-emergence application, evaluated after 13 days
Protocol: as §2

[10] = system: Setaria fabenr (SETFA); experiment: B1 Pre-emergence herbicidal activity; set-up: key to Pre-emergence herbicidal activity, SETFA (damage score 0-5): 5=total damage to plant; 0=no damage to plant; conditions: pre-emergence application, evaluated after 13 days
Protocol: as §1

SMILES | Pre-emergence herbicidal activity, ALOMY (damage score 0-5) ([1]; rate 250 g/ha) | Pre-emergence herbicidal activity, AVEFA (damage score 0-5) ([2]; rate 250 g/ha) | Pre-emergence herbicidal activity, TRAZW (damage score 0-5) ([3]; rate 250 g/ha) | Pre-emergence herbicidal activity, ECHCG (damage score 0-5) ([4]; rate 250 g/ha) | Pre-emergence herbicidal activity, LOLPE (damage score 0-5) ([5]; rate 250 g/ha) | Post-emergence herbicidal activity, ECHCG (damage score 0-5) ([6]; rate 250 g/ha) | Post-emergence herbicidal activity, ALOMY (damage score 0-5) ([7]; rate 250 g/ha) | Post-emergence herbicidal activity, SETFA (damage score 0-5) ([8]; rate 250 g/ha) | Post-emergence herbicidal activity, TRAZW (damage score 0-5) ([9]; rate 250 g/ha) | Pre-emergence herbicidal activity, SETFA (damage score 0-5) ([10]; rate 250 g/ha) | Pre-emergence herbicidal activity, ALOMY (damage score 0-5) ([1]; rate 1000 g/ha) | Pre-emergence herbicidal activity, AVEFA (damage score 0-5) ([2]; rate 1000 g/ha) | Pre-emergence herbicidal activity, TRAZW (damage score 0-5) ([3]; rate 1000 g/ha) | Pre-emergence herbicidal activity, ECHCG (damage score 0-5) ([4]; rate 1000 g/ha) | Pre-emergence herbicidal activity, LOLPE (damage score 0-5) ([5]; rate 1000 g/ha) | Post-emergence herbicidal activity, ECHCG (damage score 0-5) ([6]; rate 1000 g/ha) | Post-emergence herbicidal activity, ALOMY (damage score 0-5) ([7]; rate 1000 g/ha) | Post-emergence herbicidal activity, SETFA (damage score 0-5) ([8]; rate 1000 g/ha) | Post-emergence herbicidal activity, TRAZW (damage score 0-5) ([9]; rate 1000 g/ha) | Pre-emergence herbicidal activity, SETFA (damage score 0-5) ([10]; rate 1000 g/ha)
CSCCN(C(=O)c1ccccc1)c1ccc(-c2cncc(F)c2)nc1C(F)(F)F [Compound C104] | 0 | 0 | 0 | 0 | 0 | 1 | 0 | 2 | 0 | 3 |  |  |  |  |  |  |  |  |  | 
COCC(=O)N(Cc1ccc(Cl)cc1)c1ccc(-c2cncc(F)c2)nc1C(F)(F)F [Compound C82] |  |  |  |  |  |  |  |  |  |  | 0 | 0 | 0 | 1 | 0 | 1 | 0 | 2 | 0 | 1
CCC(=O)N(CC1CC1)c1ccc(-c2cncc(F)c2)nc1C(F)(F)F [Compound C108] |  |  |  |  |  |  |  |  |  |  | 0 | 1 | 0 | 2 | 1 | 3 | 0 | 4 | 0 | 5
CCC(=O)N(CC(=O)N(C)C)c1ccc(-c2cncc(F)c2)nc1C(F)(F)F [Compound C71] |  |  |  |  |  |  |  |  |  |  | 0 | 1 | 1 | 4 | 1 | 4 | 0 | 5 | 0 | 5
CCC(=O)N(CCSC)c1ccc(-c2cncc(F)c2)nc1C(F)(F)F [Compound C98] |  |  |  |  |  |  |  |  |  |  | 0 | 0 | 0 | 1 | 1 | 1 | 0 | 0 | 0 | 3
CCN(CC)CCCN(C(=O)C(C)C)c1ccc(-c2cncc(F)c2)nc1C(F)(F)F [Compound C69] |  |  |  |  |  |  |  |  |  |  | 0 | 1 | 0 | 3 | 0 | 3 | 0 | 4 | 0 | 5
COCC(=O)N(CC(=O)N(C)C)c1ccc(-c2cncc(F)c2)nc1C(F)(F)F [Compound C84] |  |  |  |  |  |  |  |  |  |  | 0 | 1 | 0 | 2 | 1 | 3 | 1 | 4 | 0 | 5
CCC(=O)N(Cc1cnc(Cl)s1)c1ccc(-c2cncc(F)c2)nc1C(F)(F)F [Compound C102] |  |  |  |  |  |  |  |  |  |  | 0 | 1 | 0 | 2 | 0 | 2 | 0 | 2 | 0 | 4
CC(C)CN(C(=O)C(C)C)c1ccc(-c2cncc(F)c2)nc1C(F)(F)F [Compound C86] |  |  |  |  |  |  |  |  |  |  | 0 | 0 | 0 | 0 | 0 | 1 | 0 | 1 | 0 | 1
CCC(=O)N(CC(C)C)c1ccc(-c2cncc(F)c2)nc1C(F)(F)F [Compound C97] |  |  |  |  |  |  |  |  |  |  | 0 | 0 | 0 | 1 | 0 | 2 | 0 | 3 | 0 | 3
